Article PMC6826779, “Bis-allylic Deuterated DHA Alleviates Oxidative Stress in Retinal Epithelial Cells” (Antioxidants, 2019)
Where two headings read alike, the source gives them in different places.

Experiments:
[1] = test system: ARPE-19 cells; assay: Lipid peroxidation status with C11-Bodipy581/591 probe (FACS) under oxidative conditions; format: cell-based; settings: ARPE-19, 50 µM for 24 h
Experimental: ARPE-19 cells were plated into 2 cm^2 wells (2 × 10^5 cells/well) and cultured for 24 h to reach confluence before PUFA or lipophenol treatment. The cell cultures were treated with 1% FBSM containing tested compounds (deuterated DHAs or deuterated lipophenols) at 50 μM for 24 h and then rinsed with media before the incubation of 5 µM C11-Bodipy^581/591 for 30 min. Then, the cells were rinsed and treated with the different stressors, corresponding to different protocols. For chemical stress the cells were incubated with 400 µM of H2O2 during 24 h followed by FACS analysis. For photobleaching stress, the cells were exposed to a white LED lamp with an intensity of 5000 lux at room temperature during 1 h followed by the FACS analysis.
FACS was performed with the BD Accuri C6 Flow Cytometer and BD Accuri C6 Software for data acquisition (BD Biosciences). This flow cytometer is equipped with an excitation laser at 488 nm, and a fluorescence detector FL1 533/30 nm. Data were collected to 10,000 events for each sample using a flow rate of 35 µL/min. Parameters obtained for data analysis included: cell size from the forward scatter (FSC), granularity from the side scatter (SSC) and the green fluorescence of the stained cells with C11-Bodipy^581/591.
First the SSC-A versus FSC-A dot-plot was used to gate the cellular population and remove the cellular debris. Then the SSC-A versus SSC-H dot-plot was used to remove cell doublets in the previous gate to give a final gate. The cellular population in the last gate designed was plotted on count versus log green fluorescence to give the fluorescence mean intensity of FL1. The mean FL1 values were normalized to the cells only stained with C11-Bodipy^581/591.

[2] = test system: ARPE-19 cells; assay: cells; format: cell-based; settings: for concentration range providing improvement in cell viability / concentration at which high toxicity was observed (microscopy, loss of cell adherence): 24 h; for concentration range providing improvement in cell viability: compared to untreated cells (CTL); for concentration at which high toxicity was observed (microscopy, loss of cell adherence): ARPE-19, serum starvation medium (1% FBSM); for cell mortality: ARPE-19, serum starvation, 50 µM; for IC50: Homo sapiens, MTT, read-out: IC50 (concentration leading to 50% of cell viability)
Experimental: ARPE-19 cells were obtained from ATCC, and maintained in Dulbecco’s Modified Eagle’s Medium (DMEM)/Ham F12 (GIBCO) containing 10% (v/v) fetal bovine serum (FBS) and 1% (v/v) penicillin/streptomycin under a humidified (95%)/CO2 (5%) atmosphere at 37 °C. For splitting and experiments, cells were dissociated with 0.25% trypsin-EDTA, re-suspended in the culture medium and then plated at 1–3 × 10^5 cells/mL. Cells were cultured and used up to a maximum of 10 passages.
Cell viability was determined by the MTT colorimetric assay. Cells were incubated for 2 h with MTT reagent (0.5 mg/mL). The absorbance at 570 nm and 655 nm of individual wells was measured using a microplate reader (BioRad 550). The percentage of viable cells was calculated as [(OD570 sample – OD655 sample)/(OD570 control – OD655 control)] × 100%.
ARPE-19 cells were plated into 96-well plates (3 × 10^4 cells/well) and cultured for 24 h to reach confluence before DHA treatment. The cells were treated in medium with 1% FBS (1% FBSM), or with H2O2 prepared in medium with FBS (1%, v/v) to a final concentration of 600 μM. Cells were then treated with DHA, D2-DHA and D4-DHA, at different concentrations (0–80 μm) for 24 h. Control cells were incubated with DMSO (0.2%). After 4 h, cell viability was determined in triplicate using the MTT colorimetric assay. Results were expressed in percentage of viable cells normalized with control conditions in the absence of PUFA and H2O2 stress.
Sigmoidal doses-responses linked to the toxicity were obtained using GraphPad prism software, allowing to calculate IC50 values described as the concentration leading to 50% of cell viability.

[3] = serum starvation (1% FBSM) 24 h
[4] = serum starvation (1% FBSM) 48 h
[5] = ARPE-19, 24 h incubation, H2O2 (600 µM) 4 h
[6] = ARPE-19, serum starvation (1% FBSM), 24 h incubation

| Structure (SMILES) | lipid peroxidation status (C11-BODIPY fluorescence) [1, 3] | lipid peroxidation status (C11-BODIPY fluorescence) [1, 4] | lipid peroxidation status (C11-BODIPY fluorescence) ([1]; then H2O2 400 µM 24 h) | cell survival ([2]; ARPE-19, 1% FBSM, 70 µM) [%] | concentration range providing improvement in cell viability ([2]; ARPE-19, 1% FBSM) [µM] | concentration at which high toxicity was observed (microscopy, loss of cell adherence) [2] [µM] | cell mortality [2] | IC50 [2, 5] [µM] | IC50 [2, 6] [µM] | lipid peroxidation status (C11-BODIPY fluorescence) ([1]; then photobleaching (white light, 5000 lux, 1 h)) |
| --- | --- | --- | --- | --- | --- | --- | --- | --- | --- | --- |
| [2H]C([2H])(C=CCC=CCC=CCC=CCC)C=CC([2H])([2H])C=CCCC(=O)O [D4-DHA, (6,6,9,9-D4)-DHA] | decreased lipid peroxidation status with the same efficiency, reaching oxidation levels of untreated cells | reach radical levels close to untreated cells | more effective than D2-DHA | 125 | 0 to 70 | 70 to 75 | did not induced cell mortality | 76.2 ± 2.26 | 75.6 ± 1.05 |  |
| [2H]C([2H])(/C=C\C/C=C\C/C=C\C/C=C\C/C=C\CC)/C=C\CCC(=O)O [D2-DHA, (6,6-D2)-DHA] | decreased lipid peroxidation status with the same efficiency, reaching oxidation levels of untreated cells |  |  |  | 0 to 65 | 65 to 70 | did not induced cell mortality | 67 ± 1.89 | 69.5 ± 1.46 |  |
| CC/C=C\C/C=C\C/C=C\C/C=C\C/C=C\C/C=C\CCC(=O)O [Natural DHA, docosahexaenoic acid, reference compound] |  | increase in lipid peroxidation status compared to untreated cells | increase of oxidation |  | 0 to 60 | 60 to 65 | did not induced cell mortality | 65.5 ± 1.87 | 65.2 ± 1.03 | increase in lipid peroxidation under photobleaching-stress |
